Consider 5 molecules from BindingDB's records for doi:10.7270/Q2JQ0ZH4 (Burnham Center For Chemical Genomics, 2011).

What is called IC50 is the concentration that gives 50% inhibition.

Some results are limits rather than exact numbers.

This assay deals with T1, Mitochondrial import inner membrane translocase subunit TIM10 (Saccharomyces cerevisiae (strain ATCC 204508 / S288c), UniProt P87108).
T1 sequence (P87108 whole entry): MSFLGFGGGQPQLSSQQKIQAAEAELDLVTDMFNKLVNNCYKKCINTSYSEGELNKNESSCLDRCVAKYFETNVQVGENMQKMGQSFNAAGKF
Briefly: tim10-1 yeast luminescent signal inhibition – luminescence, S. cerevisiae, uHTS hits, counter-screen for tim23-1 inhibitor project, dose response (AID 504657). A general note: The purpose of a counterscreen is to sort out artefacts and off-target activity.

`O=C1c2ccccc2-c2n[nH]c3cccc1c23` had an IC50 of more than 100 µM.
The figure for `Cc1ccc2nc(-n3c(O)c[nH]c3=S)sc2c1` is more than 100 µM; for `COC(=N)C(C#N)N=Cc1ccccc1Cl` (stereo not given) [(E)-3-amino-2-[(2-chlorophenyl)methylideneamino]-3-methoxy-2-propenenitrile] it is more than 100 µM.
The figure for `C(=CN=Nc1nc2ccccc2[nH]1)Cc1ccccc1` [MLS000390936] is more than 100 µM; for `Oc1ccccc1C1=NNC(c2ccccc2)S1` (stereo not given) [MLS001212798] it is more than 100 µM.
